Several values for one entry are separate records, joined by “and”; a condition that tells them apart may be missing. Identical values can stand only once. Residues, ends and D or L forms follow the SMILES beside them. *: point of attachment. Cbz = O=C(OCc1ccccc1)*
Tests used:
[1] = biological target: T1, proteasome (post-glutamic hydrolase activity) of MNT1 cells (Homo sapiens, UniProt P28072); assay: Proteasome LLE (post-glutamic hydrolase) activity assay on lyzates of treated MNT1 cells; format: cell-based; settings: for post-glutamic hydrolase peptidase activity of the proteasome, change in words: 72 hours after addition, MNT-1 melanocytes, FIG. 1B; for Proteasome activity at 72 hours, Post-glutamic hydrolase: MNT1 cells lyzed 72 hours after treatment, palmitic or linoleic acid 25 μM, Phaeodactylum 5 μg/ml, Mg132 120 nM where stated
T1 construct: introduce in duplicate a fixed volume of cell lyzate; endogenous in cells; host or cells: MNT1 human melanocyte line (lysate)
T1 sequence (P28072 1-239): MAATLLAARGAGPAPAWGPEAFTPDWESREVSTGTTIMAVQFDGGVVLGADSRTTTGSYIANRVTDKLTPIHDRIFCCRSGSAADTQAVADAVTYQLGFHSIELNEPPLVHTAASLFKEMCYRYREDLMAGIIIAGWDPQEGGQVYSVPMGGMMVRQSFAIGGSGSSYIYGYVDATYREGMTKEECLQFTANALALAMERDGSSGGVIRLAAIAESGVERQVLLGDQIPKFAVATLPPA
Protocol: 2.1 Treatment of MNT1 Cells (Human Melanocyte Cell Lines) in Order to Assay the Proteasome and Tyrosinase Activities
MNT1, 10^6 cells/dish 35 mm in diameter, in triplicate
(§1) Treatment on D1 • Linoleic acid 25 μM • Palmitic acid 25 μM • Phaeodactylum 5 μg/ml
+1% BSA+Vitamin E 50 μM+Vitamin C 1 mM • Linoleic acid 25 μM • Palmitic acid 25 μM • Phaeodactylum 5 μg/ml
Stirring with a magnetic bar at 37° C. for 1 hour • 2nd treatment on D4
+Cycloheximide 1 μg/ml (protein synthesis inhibitor)
+120 nM Mg132 for the assay of the tyrosinase activity. • Preparation of the lyzates after 4 hours
2 rinses with PBS (phosphate-buffered saline)
On a bed of ice; recovery in 150 μl of lysis buffer by scraping.
Freezing at ±20° C. • Protein assay via the Bradford method • Proteasome activity assay
The cells are rinsed twice with PBS and each peptidase activity of the proteasome is then determined by using a fluorogenic peptide substrate specific for each of the activities, in the presence and in the absence of a specific proteasome inhibitor, MG 132 (Leu-Leu-Leucinal). The peptide substrate products are the following: Leu-Leu-Val-Tyr-amc (LLVY-amc) for the chymotrypsin-like activity, Leu-Leu-Glu-na (LLE-na) for the post-glutamic hydrolase activity and Leu-Ser-Thr-Arg-amc (LSTR-amc) for the trypsin-like activity. The principle of the assay consists in monitoring over time the increase in fluorescence due to the release of the fluorophores aminomethylcoumarin or β-naphthylamine from the fluorogenic peptides.
b)—LLE Activity (Post-Glutamic Hydrolase)
The following cleavage reaction is studied: • Proteasome (LLE activity • (post-glutamic hydrolase) N-CBZ-LLE-NA→N-CBZ-LLE-+NA fluorescent
Reading on a spectrofluorimeter at an excitation wavelength of 333 nm and an emission wavelength of 410 nm.
The process is performed as follows: • In a 96-well plate, introduce in duplicate a fixed volume of cell lyzate (determined from the lowest protein concentration of the samples, which should correspond to 20 μg of protein) and make up to 100 μl with TRIS buffer. • Add 100 μl of LLE-NA substrate prediluted to 300 μM in the TRIS buffer (150 μM final). • Take the spectrofluorimeter readings at an excitation wavelength of 340 nm and an emission wavelength of 410 nm at a gain of 83 every 2 minutes, for 35 minutes.
The raw results are expressed in F.U./min.
The assay is performed on 200 μl of reaction volume containing a volume V of cell lyzate set as a function of the protein concentrations of the lyzates.
From the calibration range, the activity may be expressed in pmol of MCA released/minute/mg of protein:
For the assay of the proteasome activities, the cells were lyzed at 72 hours after the cell treatment, and the protein concentration was determined.

[2] = test system: tyrosinase in MNT-1 melanocytes; assay: Anti-tyrosinase western blot of treated MNT1 cells, bands quantified; format: cell-based, human; settings: for amount of tyrosinase, change in words: 24 hours or 72 hours after treatment of MNT-1 melanocytes, FIGS. 4A and 4B; for Quantification of tyrosinase at 24 hours / Quantification of tyrosinase at 72 hours: western blot bands, control = 100 %, palmitic or linoleic acid 25 μM, Phaeodactylum 5 μg/ml, Mg132 120 nM where stated; for Quantification of tyrosinase at 24 hours: MNT1 lyzed at 24 hours; for Quantification of tyrosinase at 72 hours: MNT1 lyzed at 72 hours
Protocol: 2.2 Treatment of MNT1 in Order to Assay the Proteasome, the Ubiquitin Proteins and the Tyrosinase by Western Blotting
10^6 MNT1 cells/dish 35 mm in diameter, in quadruplicate
as §1
+1% bovine serum albumin (BSA)+Vitamin E (Vitamin E) 50 μM+Vitamin C (Vitamin C) 1 mM • Linoleic acid 25 μM • Palmitic acid 25 μM • Phaeodactylum 5 μg/ml
Preparation of the Lyzates on D2, D3 and D4
Recovery of the cell lawn in 150 μl of Laemmli 2× buffer+1% DTT (10 mM) by scraping.
Electrophoresis of the proteins is performed in a polyacrylamide minigel 1 mm to […] thick, under denaturing and reducing conditions, in batch buffer according to the Laemmli method (1970). The gels containing 12% T, 2.7% C allow separation of the low molecular weight proteins ranging from 20 to 120 kDa. The gels containing 8% T; 2.7% C allow separation of the high molecular weight proteins from 35 to 250 kDa.
Next, this membrane is placed in contact with the primary antibody diluted to the optimum concentration in PBS-T with or without 5% milk (m/v) depending on the antibody, for 1 hour with stirring at room temperature or overnight at 4° C.
Under the action of peroxidase and an amplifier, the luminol is oxidized and goes into a transient excited state. Return to the ground state takes place by emission of photons, which strike an autoradiography film placed on the membrane.
The bands are quantified by means of the Gels Analysts 3.01 software.
Starting with cell extracts of MNT-1 melanocytes cultured under these various conditions, with the protocols defined in the “Materials and methods” section, the effects of the extracts of the alga Phaeodactylum tricornutum on the amount of tyrosinase and of its activity were characterized.

post-glutamic hydrolase peptidase activity of the proteasome, change in words [1] | Proteasome activity at 72 hours, Post-glutamic hydrolase [1] [nmol/min/mg] | Compound | amount of tyrosinase, change in words [2] | Quantification of tyrosinase at 24 hours [2] | Quantification of tyrosinase at 72 hours [2]
increase and do so significantly | 78 ± 3.6 | CCCCC/C=C\C/C=C\CCCCCCCC(=O)O [Linoleic acid] | significant decrease | 75% and 51% | 13% and 22%
– | 42 ± 5 | CC(C)C[C@@H](C=O)NC(=O)[C@H](CC(C)C)NC(=O)[C@H](CC(C)C)NC(=O)OCc1ccccc1 [Control + Mg132, Z-Leu-Leu-Leu-CHO] (Cbz-Leu-Leu-Leu-aldehyde) | this decrease may be reversed | 100% | 100%
reduced | 54 ± 6 | CCCCCCCCCCCCCCCC(=O)O [Palmitic acid] | – | 135% and 127% | 62% and 88%

Source: patent US8372408B2, “Use of Phaeodactylum algae extract for depigmenting the skin” (LVMH Recherche, priority 2007, dated 2013)
